Data published in ChEMBL document CHEMBL5244202, “Structural evolution of toll-like receptor 7/8 agonists from imidazoquinolines to imidazoles” (RSC Med Chem, 2021).

Tests used:
Toll-like receptor 7 [1] = target: T1, Toll-like receptor 7 (Homo sapiens, UniProt Q9NYK1); experiment: Agonist activity at TLR7 (unknown origin)
T1 sequence (Q9NYK1 whole entry): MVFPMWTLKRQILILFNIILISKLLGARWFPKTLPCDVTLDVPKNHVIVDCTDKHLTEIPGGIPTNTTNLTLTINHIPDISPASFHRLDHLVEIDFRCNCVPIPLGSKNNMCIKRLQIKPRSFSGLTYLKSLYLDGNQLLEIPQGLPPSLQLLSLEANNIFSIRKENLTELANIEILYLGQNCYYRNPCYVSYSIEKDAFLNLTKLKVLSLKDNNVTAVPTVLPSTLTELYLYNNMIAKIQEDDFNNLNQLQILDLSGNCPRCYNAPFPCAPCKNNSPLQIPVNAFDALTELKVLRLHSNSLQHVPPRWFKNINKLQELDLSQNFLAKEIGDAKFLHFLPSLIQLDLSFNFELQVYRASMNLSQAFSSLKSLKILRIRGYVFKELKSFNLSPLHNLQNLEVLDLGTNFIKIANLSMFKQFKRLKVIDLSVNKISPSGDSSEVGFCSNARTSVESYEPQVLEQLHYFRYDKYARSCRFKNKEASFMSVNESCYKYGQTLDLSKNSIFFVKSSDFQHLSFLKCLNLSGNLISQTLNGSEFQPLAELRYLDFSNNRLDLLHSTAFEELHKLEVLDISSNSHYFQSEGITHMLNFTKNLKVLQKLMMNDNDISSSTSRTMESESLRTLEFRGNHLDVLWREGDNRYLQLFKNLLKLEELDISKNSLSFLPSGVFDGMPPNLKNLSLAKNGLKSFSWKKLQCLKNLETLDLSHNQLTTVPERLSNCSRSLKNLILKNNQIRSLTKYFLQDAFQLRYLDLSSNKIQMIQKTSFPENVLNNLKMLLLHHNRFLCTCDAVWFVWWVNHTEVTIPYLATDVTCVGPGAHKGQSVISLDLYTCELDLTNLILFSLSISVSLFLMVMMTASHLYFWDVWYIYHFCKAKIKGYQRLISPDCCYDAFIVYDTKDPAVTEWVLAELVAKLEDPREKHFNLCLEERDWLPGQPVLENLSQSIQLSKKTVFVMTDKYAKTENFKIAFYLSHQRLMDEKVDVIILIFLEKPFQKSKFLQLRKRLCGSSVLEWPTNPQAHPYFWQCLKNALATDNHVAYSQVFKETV

Toll-like receptor 8 [2] = target: T2, Toll-like receptor 8 (Homo sapiens, UniProt Q9NR97); experiment: Agonist activity at TLR8 (unknown origin)
T2 sequence (Q9NR97 whole entry): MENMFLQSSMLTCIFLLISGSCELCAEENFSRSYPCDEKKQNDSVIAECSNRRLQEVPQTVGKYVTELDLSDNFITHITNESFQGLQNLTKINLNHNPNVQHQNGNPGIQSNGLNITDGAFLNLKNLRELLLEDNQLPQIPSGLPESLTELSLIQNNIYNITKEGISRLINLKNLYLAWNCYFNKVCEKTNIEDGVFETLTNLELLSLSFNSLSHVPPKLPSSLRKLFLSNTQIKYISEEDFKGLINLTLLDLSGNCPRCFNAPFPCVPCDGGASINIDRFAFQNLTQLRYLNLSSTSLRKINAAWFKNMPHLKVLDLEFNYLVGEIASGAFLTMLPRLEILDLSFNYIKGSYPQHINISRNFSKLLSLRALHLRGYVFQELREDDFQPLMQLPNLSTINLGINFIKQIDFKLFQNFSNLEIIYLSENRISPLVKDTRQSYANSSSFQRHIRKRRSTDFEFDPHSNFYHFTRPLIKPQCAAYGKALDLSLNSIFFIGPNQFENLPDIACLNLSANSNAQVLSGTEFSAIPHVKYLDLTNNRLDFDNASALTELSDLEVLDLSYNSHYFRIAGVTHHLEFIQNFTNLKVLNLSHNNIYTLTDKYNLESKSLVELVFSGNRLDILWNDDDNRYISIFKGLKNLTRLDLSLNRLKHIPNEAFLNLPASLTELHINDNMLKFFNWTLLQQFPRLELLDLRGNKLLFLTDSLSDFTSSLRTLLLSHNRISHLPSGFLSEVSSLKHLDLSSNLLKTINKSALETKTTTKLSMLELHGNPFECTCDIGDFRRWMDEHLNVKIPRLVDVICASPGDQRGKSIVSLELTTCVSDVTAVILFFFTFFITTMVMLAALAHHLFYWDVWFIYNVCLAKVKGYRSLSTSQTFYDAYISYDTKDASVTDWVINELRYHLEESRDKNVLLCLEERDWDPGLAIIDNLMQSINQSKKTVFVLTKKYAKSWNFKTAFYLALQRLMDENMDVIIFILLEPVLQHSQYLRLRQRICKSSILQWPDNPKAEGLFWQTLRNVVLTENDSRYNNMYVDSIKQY

Homo sapiens = species on record: Homo sapiens; experiment: Selectivity index, ratio of EC50 for agonist activity at TLR8 (unknown origin) to EC50 for agonist activity at TLR7 (unknown origin)
Toll-like receptor 7 [3] = target: T1, Toll-like receptor 7; experiment: Agonist activity at human TLR7 in HEK-Blue hTLR7 cells incubated for 24 hrs by quanti-blue reagent based analysis; type: cell-based
Toll-like receptor 8 [4] = target: T2, Toll-like receptor 8; experiment: Agonist activity at human TLR8 in HEK-Blue hTLR8 cells incubated for 24 hrs by quanti-blue reagent based analysis; type: cell-based

CCOC(=O)C1=Cc2ccc(-c3cccc(C#N)c3)cc2N=C(N)C1
EC50 (Toll-like receptor 7 [1]): 0.03 µM | EC50 (Toll-like receptor 8 [2]): 15 µM | Ratio EC50 (Homo sapiens): 500

CCCCOc1nc(N)c2[nH]c(C#N)c(Cc3cnc(CN4CCCC4)s3)c2n1
EC50 (Toll-like receptor 7 [3]): 0.454 µM | EC50 (Toll-like receptor 8 [4]): 293 µM
